Legend:
[1] = system: isolated perfused rat heart; assay: Global ischaemia/reperfusion of isolated perfused (Langendorff) rat heart; conditions: 10 μM AOL pretreatment, 30 min ischaemia
Experimental: The consequences of 30 minutes' global ischaemia followed by 120 minutes' reperfusion (FIG. 11) on contractility and tissue viability were studied on isolated perfused rat heart pretreated or not (control vehicle) with 10 μM AOL.
All procedures conformed to the UK Animals (Scientific Procedures) Act 1986 and the Guide for the Care and Use of Laboratory Animals published by the National Institutes of Health (NIH Publication No. 85-23. revised 1996). Male Wistar rats (250-300 g) were anesthetized by 3% isoflurane, heparinized and euthanized by a lethal IP injection of pentobarbital (130 mg/kg). Hearts (˜0.95 g of fresh weight) were rapidly harvested and placed into ice cold Krebs-Henseleit buffer containing (in mmol/L): NaCl 118, NaHCO3 25, KCl 4.8, KH2PO4 1.2, MgSO4 1.2, glucose 11 and CaCl2 1.8; gassed with 95% O2/5% CO2 at 37° C. (pH 7.4). Langendorff heart perfusions were performed (Garlid, K. D. et al., 2006. Am. J. Physiol. Heart Circ. Physiol. 291(1):H152-60) and contractility was assessed by continuous measurement of the rate pressure product (RPP) thanks to a balloon placed in the left ventricle and connected to a pressure transducer. Hearts were perfused in a constant flow mode (12 mL/min). […]

[2] = system: diet-induced obese (DIO) mice; assay: Chronic ip treatment of diet-induced obese mice on high-fat diet; assay type: in vivo, mouse; conditions: for AUC of blood glucose during insulin tolerance test (ITT): vehicle 12812.50±750.35
Experimental: The aim of the study was to determine whether the compound AOL, administered daily at the doses of 5 mg/kg and 10 mg/kg for up to five weeks by intraperitoneal (ip) daily administration in diet-induced obese (DIO) mice fed with a high-fat diet (HFD), modifies food intake, body weight, adiposity and glucose metabolism.
Mice were fed ad libitum with a HFD (60% of calories from fat, mostly lard) for twelve weeks before the pharmacological study begun. Animals received AOL or its vehicle by intraperitoneal (ip) administration and were maintained on HFD for the length of the study. Food intake and body weight were measured daily and recorded for up to three consecutive weeks.
Thirty 7-weeks-old male C57/B16J mice arrived to the laboratory on 25 Feb. 2016 and underwent a first in vivo body composition analysis (Echo MRI 900, EchoMRI Systems) after 1 week of adaptation to the experimental housing room. After this first MRI analysis, animals were fed a high-fat diet (HFD) ad libitum for a period of twelve weeks. Thereafter, they underwent a second MRI analysis and were distributed into 3 experimental groups of equivalent body weight and body composition.
Once the pharmacological treatment started (day 1), food intake (FI) and body weight (BW) were measured daily before the dark phase in animals housed in their home cage. Spillage of food was checked daily. The food consumed was calculated by subtracting the food left in the hoppers from the initial pre-weighted amount. FI and BW were measured for three consecutive weeks. Afterwards animals underwent a third MRI analysis in order to observe potential effects of the treatment onto the body composition (changes in fat and lean mass), followed by a glucose tolerance test (GTT) and an insulin tolerance test (ITT). Mice received daily ip administration of AOL or its vehicle for a total length of five weeks, until they were sacrificed.
A nuclear echo magnetic resonance imaging whole-body composition analyzer (Echo MRI 900; EchoMedical Systems) was used to repeatedly assess body fat and lean mass in conscious mice.
Animals were injected ip with 1.5 g/kg of D-Glucose (Sigma-Aldrich) for the GTT or with 0.5 U/kg of insulin (Humulin, Lilly, France) for the ITT. For the GTT and the ITT, animals were fasted overnight. The tests were conducted the following morning. Blood samples were taken from the tail vein at different time points (0, 15, 30, 60, 90 and 120 minutes after the ip administration of glucose or insulin) and glucose concentration was measured using glucose sticks (OneTouch Vita, Lifescan France, Issy les Moulineaux, France).
At sacrifice, blood samples were collected, blood glucose was rapidly assessed using glucose sticks and blood samples were then centrifuged at 3000 rpm for 15 minutes. The obtained plasma was stored at −80° C. for subsequent measurement of insulin, which was carried out by performing an ELISA (kit from Mercodia, Uppsala, Sweden), according to the manufacturer's instructions.

## COc1ccc(-c2cc(=S)ss2)cc1 [AOL, 5-(4-methoxyphenyl)-3H-1,2-dithiole-3-thione]
[1]; 120 min reperfusion
  infarcted tissue rescued (TTC staining): about 50%
[1]; after 2 hours of reperfusion
  heart contractility (rate pressure product, RPP) versus control hearts: about three times higher
[2]; 2-hour fasted mice, after five weeks of treatment
  blood glucose levels: tended to decrease
[2]; 5 and 10 mg/kg ip daily
  body weight and % change of body weight: did not have a significant effect
[2]; AOL 5 mg/kg
  AUC of blood glucose during insulin tolerance test (ITT): 15006.56±1139.69
[2]; AOL 10 mg/kg
  action of insulin on circulating glucose levels during an ITT: significantly blunted
[2]; AOL 10 mg/kg, p=0.0107 vs vehicle
  AUC of blood glucose during insulin tolerance test (ITT): 18168.33±1562.90
[2]; after three weeks, 5 and 10 mg/kg ip daily
  lean mass: did not have any effect
[2]; after three weeks, 5 and 10 mg/kg ip daily, p=0.13
  fat mass: tended to reduce
[2]; chronic daily administration, data not shown
  body weight and food intake: tended to decrease

Source: patent US11318113B2, “Compounds for the treatment of diseases linked to mitochondrial reactive oxygen species (ROS) production” (OP2 DRUGS, priority 2015, dated 2022)
